Results taken from patent US9115072B2, “Compounds and method for reducing uric acid” (WELLSTAT THERAPEUTICS CORPORATION, priority 2008, dated 2015).
Several values for one entry are separate records, joined by “and”; a condition that tells them apart may be missing. Equal values may be shown once.

Experiments:
[1] = Mouse oral single-dose pharmacokinetic study; type: in vivo; conditions: for Compound EH Concentration in mouse PLASMA: individual mice; for Compound EH concentr., mean: Data from Sigma Stat
Procedure: • 1. Mice received single oral gavage of Compound EH, 100 mg/kg, and plasma was collected at certain times. • 2. Plasma was stored at −80° C. until the day of analysis. • 3. Samples were thawed on 37° C. bath for 5 min and vortexed at top speed for 10 sec. • 4. Mouse plasma, 0.1 mL was mixed with 0.2 mL Acetonitrile, vortexed 1 min, spun down 14000 rpm, 17000 g, at 4° C., for 25 min. • 5. Supernatants were filtered through 0.45 micron, 4 mm, PTFE membrane syringe filter (Phenomenex #AF0-3102-52), and 15 microL were injected and resolved on Luna 3 micron, 100 A pore, C8(2), 150×3 mm, reverse phase column (Phenomenex#00E-4248-YO, SN#259151-7) in 50 min linear gradient from 40% to 69% of (0.1% Formic Acid, 89.9% Acetonitrile, 10% Methanol) at 0.25 mL/min, 100 bar, 37° C. column temperature, method 406975M1, Sequence 0205-09A, Agilent 1100 LC-MS.
All samples were run in duplicate, 210 nm and 230 nm Absorbances, Negative and Positive ionization spectrograms recorded.
• Step 1. Plasma from “Vehicle” animals (pooled), 0.19 mL, was mixed with 0.01 mL 20× stock of Compound EH in Methanol to make 500 microM, 250 microM, 125 microM, . . . , concentrations of Compound EH in plasma. • For example: 190 microL plasma+10 microL of 10 mM Compound EH in methanol=0.2 mL plasma with 500 microM Compound EH. • Step 2. Samples from step 1 were vortexed for 10 sec at top speed. • Step 3. 0.4 mL of acetonitrile was added to all samples from Step 2, and all vials were vortexed at top speed for 1 min • Step 4. All samples from step 3 were spun down 14000 rpm, 17000 g, at 4° C., for 25 min. • Step 5. Supernatants were filtered through 0.45 micron, 4 mm, PTFE membrane syringe filter (Phenomenex #AF0-3102-52), 15 microL were injected and resolved on Luna 3 micron, 100 A pore, C8(2), 150×3 mm, reverse phase column

[2] = biological target: T1, human URAT1 (Homo sapiens, UniProt Q96S37); test: URAT1 inhibition assay, [8-14C] urate uptake in hURAT1-HEK cells; type: cell-based; conditions: 50 μM [8-14C] urate
T1 construct: The full-length hURAT1 cDNA was obtained from the vector pCMV6-XL5 and subcloned into the expression vector pCMV6-Neo
T1 sequence (Q96S37 1-553): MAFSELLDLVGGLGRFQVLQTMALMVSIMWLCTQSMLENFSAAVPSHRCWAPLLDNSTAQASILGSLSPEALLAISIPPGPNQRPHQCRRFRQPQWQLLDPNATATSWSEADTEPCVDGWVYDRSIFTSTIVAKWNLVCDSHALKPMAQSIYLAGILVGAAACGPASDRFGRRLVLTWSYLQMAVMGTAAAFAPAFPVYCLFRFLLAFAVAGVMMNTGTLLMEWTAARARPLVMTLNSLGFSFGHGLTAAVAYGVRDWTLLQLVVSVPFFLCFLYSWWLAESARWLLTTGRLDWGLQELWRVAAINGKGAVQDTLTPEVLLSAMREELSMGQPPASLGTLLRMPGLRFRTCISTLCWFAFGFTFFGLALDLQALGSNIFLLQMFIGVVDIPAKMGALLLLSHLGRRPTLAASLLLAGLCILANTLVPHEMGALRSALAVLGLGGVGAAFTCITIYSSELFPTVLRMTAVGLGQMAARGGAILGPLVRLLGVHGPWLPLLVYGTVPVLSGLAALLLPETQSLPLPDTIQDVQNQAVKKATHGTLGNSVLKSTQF
Procedure: A suitable assay involves transfection of cells (e.g. human embryonic kidney cells; “HEK”) with a vector encoding human URAT1, followed by determination of the ability of transfected cells to take up radiolabeled uric acid. The activity of compounds as URAT1 inhibitors is evaluated by their ability to block uric acid uptake by transfected cells.
Urate (50-60 mCi/mmol; American Radio Chemicals, Cat. No. ARC0513).
Plasmid vector pCMV6-XL5 containing hURAT1 cDNA (Cat. No. SC125624) and the expression vector pCMV6-Neo (Cat. No. pCMVNEO) were obtained from OriGene Technologies, Inc. The full-length hURAT1 cDNA was obtained from the vector pCMV6-XL5 and subcloned into the expression vector pCMV6-Neo to create the hURAT1 expression plasmid pCMV6-hURAT1. The sequences were verified by automatic DNA sequencing.
For transfection experiments, cells were plated on 60 mm dishes in 1 ml media per dish. […] Stable transfectants expressing hURAT1 (herein after referred as hURAT1-HEK cells) or cells having only the expression vector pCMV6-Neo (herein after referred as mock-HEK cells) were verified using reverse transcription polymerase chain reaction (RT-PCR) methods.
Before the uptake assay started, the culture medium was removed and the cells were incubated for 5 min in 0.6 ml of HBSS. After that HBSS was removed, the prepared reaction solutions were added into each well and incubated for 5 min at room temperature. Then the reaction solution was removed, cells were washed twice with 0.6 ml of cold HBSS and lysed with 0.2 ml of 0.1 M NaOH for 20 min. […] Test compounds were dissolved in DMSO and the same concentration of DMSO was added into the wells of mock-HEK cells and the hURAT1-HEK cells that didn't contain test compounds. For each test compound, the uptake assay was performed 2 times and carried out in triplicate. Urate uptake of the cells for each test condition was presented as the average percent inhibition in comparison to the DMSO control. The radioactivity values obtained for the wells that contained DMSO were taken as 100% uptake of the cells. The observed concentration-percent inhibition data were fitted to a sigmoidal concentration-effect model, where: IC50^Slope=[(100*Conc^Slope)/% Inhibition]−Conc^Slope
Additional drug concentrations were tested for determination of IC-50 values for some compounds (Table 6).

Compound EH Concentration in mouse PLASMA ([1]; 100 mg/kg single oral gavage, bleed time 0.5 HR, 100 mg/kg): 430 µM and 342 µM and 523 µM
Compound EH Concentration in mouse PLASMA ([1]; 100 mg/kg single oral gavage, bleed time 1 HR, 100 mg/kg): 467 µM and 447 µM and 406 µM
Compound EH Concentration in mouse PLASMA ([1]; 100 mg/kg single oral gavage, bleed time 2 HR, 100 mg/kg): 178 µM and 238 µM and 241 µM
Compound EH Concentration in mouse PLASMA ([1]; 100 mg/kg single oral gavage, bleed time 4 HR, 100 mg/kg): 148 µM and 154 µM and 134 µM
Compound EH Concentration in mouse PLASMA ([1]; 100 mg/kg single oral gavage, bleed time 6 HR, 100 mg/kg): 93 µM and 268 µM and 231 µM
Compound EH Concentration in mouse PLASMA ([1]; 100 mg/kg single oral gavage, bleed time 8 HR, 100 mg/kg): 95 µM and 147 µM and 187 µM
Compound EH Concentration in mouse PLASMA ([1]; 100 mg/kg single oral gavage, bleed time 12 HR, 100 mg/kg): 79 µM and 36 µM and 74 µM
Compound EH Concentration in mouse PLASMA ([1]; 100 mg/kg single oral gavage, bleed time 16 HR, 100 mg/kg): 25 µM and 61 µM
Compound EH Concentration in mouse PLASMA ([1]; 100 mg/kg single oral gavage, bleed time 24 HR, 100 mg/kg): 40 µM and 26 µM and 0.74 µM
Compound EH Concentration in mouse PLASMA ([1]; 100 mg/kg single oral gavage, bleed time 48 HR): 0 µM
Compound EH concentr., mean ([1]; mouse plasma, 100 mg/kg oral, time bleed 0 HR): 0 µM
Compound EH concentr., mean ([1]; mouse plasma, 100 mg/kg oral, time bleed 0.5 HR): 431.7 µM
Compound EH concentr., mean ([1]; mouse plasma, 100 mg/kg oral, time bleed 1 HR): 440 µM
Compound EH concentr., mean ([1]; mouse plasma, 100 mg/kg oral, time bleed 2 HR): 219 µM
Compound EH concentr., mean ([1]; mouse plasma, 100 mg/kg oral, time bleed 4 HR): 145.3 µM
Compound EH concentr., mean ([1]; mouse plasma, 100 mg/kg oral, time bleed 6 HR): 197.3 µM
Compound EH concentr., mean ([1]; mouse plasma, 100 mg/kg oral, time bleed 8 HR): 143 µM
Compound EH concentr., mean ([1]; mouse plasma, 100 mg/kg oral, time bleed 12 HR): 63 µM
Compound EH concentr., mean ([1]; mouse plasma, 100 mg/kg oral, time bleed 16 HR): 43 µM
Compound EH concentr., mean ([1]; mouse plasma, 100 mg/kg oral, time bleed 24 HR): 22.247 µM
Compound EH concentr., mean ([1]; mouse plasma, 100 mg/kg oral, time bleed 48 HR): 0 µM
Cmax ([1]; mouse plasma, 100 mg/kg single oral gavage): 440 µM
concentration at 0 h ([1]; mouse, plasma, 100 mg/kg oral, Time 0 HR, Table 13, read-out: Cpd. EH (mouse plasma concentration)): 0 nM
concentration at 0.5 h ([1]; mouse, plasma, 100 mg/kg oral, Time 0.5 HR, Table 13, read-out: Cpd. EH (mouse plasma concentration)): 432 µM
concentration at 1 h ([1]; mouse, plasma, 100 mg/kg oral, Time 1 HR, Table 13, read-out: Cpd. EH (mouse plasma concentration)): 440 µM
concentration at 2 h ([1]; mouse, plasma, 100 mg/kg oral, Time 2 HR, Table 13, read-out: Cpd. EH (mouse plasma concentration)): 219 µM
concentration at 4 h ([1]; mouse, plasma, 100 mg/kg oral, Time 4 HR, Table 13, read-out: Cpd. EH (mouse plasma concentration)): 145 µM
concentration at 6 h ([1]; mouse, plasma, 100 mg/kg oral, Time 6 HR, Table 13, read-out: Cpd. EH (mouse plasma concentration)): 197 µM
concentration at 8 h ([1]; mouse, plasma, 100 mg/kg oral, Time 8 HR, Table 13, read-out: Cpd. EH (mouse plasma concentration)): 143 µM
concentration at 12 h ([1]; mouse, plasma, 100 mg/kg oral, Time 12 HR, Table 13, read-out: Cpd. EH (mouse plasma concentration)): 63 µM
concentration at 16 h ([1]; mouse, plasma, 100 mg/kg oral, Time 16 HR, Table 13, read-out: Cpd. EH (mouse plasma concentration)): 43 µM
concentration at 24 h ([1]; mouse, plasma, 100 mg/kg oral, Time 24 HR, Table 13, read-out: Cpd. EH (mouse plasma concentration)): 22 µM
concentration at 48 h ([1]; mouse, plasma, 100 mg/kg oral, Time 48 HR, Table 13, read-out: Cpd. EH (mouse plasma concentration)): 0 nM
IC50 [2]: 80 nM
inhibition at 10 µM ([2]; drug concentration typically 10 micromolar, read-out: % of Inhibition (uric acid uptake)): 95.9%
SMILES: Cc1ccc(CC(=O)O)cc1OCc1c(C)cccc1C [Compound EH, 2-(3-(2,6-Dimethylbenzyloxy)-4-methylphenyl)acetic acid]
